From patent US20060069132A1, “Azolecarboxamide herbicides” (priority 2004, published 2006)

Columns and labels:
rice [1] = assay: Test C flooded paddy test; assay type: in vivo, Oryza sativa; conditions: for Plant response rating, Rice: 500 g ai/ha, visual rating after 12 to 14 days
How it was run: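 Postemergence sprays applied to plants 2 to 18 cm tall (1- to 4-leaf stage); paddy species grown to 2-leaf stage under flooding. After 12 to 14 days in greenhouse, visual rating versus untreated controls on 0–100 scale (0 no effect, 100 complete control).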

common ragweed = assay: Test C pre-/postemergence herbicide test; assay type: in vivo, Ambrosia elatior; parameters: key to Plant response rating, Ragweed: 0 = no effect, 100 = complete control
How it was run: (§1)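 Visual injury scores run from 0 (no effect) to 100 (complete control), assessed relative to untreated controls 12 to 14 days after treatment in the greenhouse. Chemicals were formulated in a non-phytotoxic solvent mixture with surfactant and applied to soil after planting or to emerged plants at the 1- to 4-leaf stage.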

velvetleaf = assay: Test A pre-/postemergence herbicide test; assay type: in vivo, Abutilon theophrasti
How it was run: (§2)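 Pre: seeded sandy loam, directed soil spray, compound in non-phytotoxic solvent + surfactant. Post: 1–2-leaf plants (2–10 cm), sprayed to runoff. Greenhouse ~10 d; visual injury vs untreated, 0–100 scale.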

rice [2] = assay: Test B pre-/postemergence herbicide test; assay type: in vivo, Oryza sativa; conditions: preemergence
How it was run: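 Species tested were Echinochloa crus-galli, Ipomoea coccinea, Xanthium strumarium and Oryza sativa, treated both before emergence and at the 1- to 4-leaf stage; rice and barnyardgrass were also tested under flooding at 2 leaves. Greenhouse incubation lasted 13–15 days before visual 0–100 scoring.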

giant foxtail = assay: Test C pre-/postemergence herbicide test; assay type: in vivo, Setaria faberi
How it was run: as §1

barnyardgrass = assay: Test C flooded paddy test; assay type: in vivo, Echinochloa crus-galli; conditions: for Plant response rating, Barnyardgrass: 500 g ai/ha, visual rating after 12 to 14 days
How it was run: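 Scoring by eye, 12–14 days post-treatment, greenhouse-held plants vs. controls; 0 no effect, 100 complete control. Sprayed at 1–4 leaves (2–18 cm); paddy barnyardgrass at 2 leaves, flooded.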

[3] = system: common (oilseed) sunflower; assay: Test C pre-/postemergence herbicide test; assay type: in vivo, Helianthus annuus; conditions: for Plant response rating (0 = no effect, 100 = complete control), Sunflower: 62 g ai/ha; for Plant response rating (0 = no effect, 100 = complete control), Sunflower / Plant response rating, Sunflower: preemergence; for Plant response rating, Sunflower: 125 g ai/ha, scale 0 (no effect) to 100 (complete control), visual, 12 to 14 days
How it was run: as §1

morningglory = assay: Test A pre-/postemergence herbicide test; assay type: in vivo, Ipomoea spp.
How it was run: as §2

eastern black nightshade = assay: Test C pre-/postemergence herbicide test; assay type: in vivo, Solanum ptycanthum; conditions: for Plant response rating (0 = no effect, 100 = complete control), Nightshade: 62 g ai/ha; for Plant response rating (0 = no effect, 100 = complete control), Nightshade / Plant response rating, Nightshade: preemergence; for Plant response rating, Nightshade: 125 g ai/ha, scale 0 (no effect) to 100 (complete control), visual, 12 to 14 days
How it was run: as §1

[4] = 62 g ai/ha, scale 0 to 100 (0 no effect, 100 complete control)
[5] = 125 g ai/ha, scale 0 to 100 (0 no effect, 100 complete control)
[6] = 250 g ai/ha, scale of 0 to 100, 0 is no effect, 100 is complete control
[7] = scale 0 to 100 (0 no effect, 100 complete control)
[8] = 125 g ai/ha, scale 0 (no effect) to 100 (complete control), visual, 12 to 14 days, preemergence
[9] = Preemergence, 500 g ai/ha, scale 0 to 100, 0 no effect, 100 complete control
[10] = Postemergence, 250 g ai/ha, 0 to 100 scale, 0 no effect, 100 complete control
[11] = Postemergence, 1000 g ai/ha, 0 to 100 scale, 0 no effect, 100 complete control
[12] = Preemergence, 1000 g ai/ha, visual rating, 0 to 100 scale (0 no effect, 100 complete control)
[13] = preemergence, 250 g ai/ha, visual injury, 0 to 100 scale (0 no effect, 100 complete control)
[14] = 500 g ai/ha, visual rating 0-100, 0 no effect, 100 complete control
[15] = 250 g ai/ha, scale 0 to 100 (0 no effect, 100 complete control), visual, 12 to 14 days, preemergence
[16] = 125 g ai/ha, scale of 0 to 100, 0 is no effect, 100 is complete control
[17] = Postemergence, 250 g ai/ha, scale 0 to 100, 0 no effect, 100 complete control
[18] = postemergence, 125 g ai/ha, scale 0 to 100
[19] = postemergence, 62 g ai/ha, scale 0 to 100
[20] = Postemergence, 500 g ai/ha, 0 to 100 scale, 0 no effect, 100 complete control
[21] = Postemergence, 2000 g ai/ha, 0 to 100 scale, 0 no effect, 100 complete control
[22] = Preemergence, 2000 g ai/ha, visual rating, 0 to 100 scale (0 no effect, 100 complete control)

CCn1nc(C(C)(C)C)cc1C(=O)Nc1cccc(S(=O)(=O)C(F)(F)F)c1 [Compound 134]
Rice plant response rating (rice [1]; [4]): 35 | Rice plant response rating (rice [1]; [5]): 45 | Rice plant response rating (rice [1]; [6]): 55 | Plant response rating, Rice (rice [1]; [7]): 60 | Plant response rating (0 = no effect, 100 = complete control), Ragweed (common ragweed; 62 g ai/ha, preemergence): 0 | Plant response rating, Ragweed (common ragweed; [8]): 25 | Ragweed plant response rating (common ragweed; [9]): 100 | Velvetleaf plant response rating (velvetleaf; [10]): 20 | Plant response rating, Velvetleaf (velvetleaf; [11]): 20 | Velvetleaf plant response rating (velvetleaf; [12]): 40 | Velvetleaf plant response rating (velvetleaf; [13]): 15 | Plant response rating, Rice (rice [2]; [14]): 50 | Plant response rating (0 = no effect, 100 = complete control), Foxtail, Giant (giant foxtail; 62 g ai/ha, preemergence): 0 | Plant response rating, Foxtail, Giant (giant foxtail; [8]): 0 | Plant response rating, Foxtail, Giant (giant foxtail; [15]): 0 | Foxtail, Giant plant response rating (giant foxtail; [9]): 85 | Barnyardgrass plant response rating (barnyardgrass; [4]): 10 | Barnyardgrass plant response rating (barnyardgrass; [16]): 25 | Barnyardgrass plant response rating (barnyardgrass; [6]): 50 | Plant response rating, Barnyardgrass (barnyardgrass; [7]): 50 | Plant response rating (0 = no effect, 100 = complete control), Sunflower [3]: 0 | Plant response rating, Sunflower [3]: 0 | Sunflower plant response rating [3, 9]: 0 | Morningglory plant response rating (morningglory; [10]): 10 | Plant response rating, Morningglory (morningglory; [11]): 20 | Morningglory plant response rating (morningglory; [12]): 30 | Morningglory plant response rating (morningglory; [13]): 5 | Plant response rating (0 = no effect, 100 = complete control), Nightshade (eastern black nightshade): 90 | Plant response rating, Nightshade (eastern black nightshade): 95 | Nightshade plant response rating (eastern black nightshade; [9]): 100

CCn1nc(C(C)(C)C)cc1C(=O)Nc1cccc(C#N)c1 [Compound 139]
Rice plant response rating (rice [1]; [4]): 0 | Rice plant response rating (rice [1]; [5]): 35 | Rice plant response rating (rice [1]; [6]): 45 | Plant response rating, Rice (rice [1]; [7]): 60 | Plant response rating (0 = no effect, 100 = complete control), Ragweed (common ragweed; 62 g ai/ha, preemergence): 50 | Plant response rating, Ragweed (common ragweed; [8]): 50 | Plant response rating, Ragweed (common ragweed; [17]): 45 | Plant response rating, Ragweed (common ragweed; [18]): 45 | Plant response rating, Ragweed (common ragweed; [19]): 0 | Velvetleaf plant response rating (velvetleaf; [20]): 25 | Plant response rating, Velvetleaf (velvetleaf; [21]): 40 | Velvetleaf plant response rating (velvetleaf; [22]): 80 | Velvetleaf plant response rating (velvetleaf; preemergence, 500 g ai/ha, visual injury, 0 to 100 scale (0 no effect, 100 complete control)): 50 | Plant response rating, Rice (rice [2]; [14]): 60 | Plant response rating, Rice (rice [2]; 125 g ai/ha, 0 to 100 scale, 0 is no effect, 100 is complete control): 30 | Plant response rating (0 = no effect, 100 = complete control), Foxtail, Giant (giant foxtail; 62 g ai/ha, preemergence): 40 | Plant response rating, Foxtail, Giant (giant foxtail; [8]): 80 | Plant response rating, Foxtail, Giant (giant foxtail; [15]): 95 | Plant response rating, Foxtail, Giant (giant foxtail; [17]): 10 | Plant response rating, Foxtail, Giant (giant foxtail; [18]): 0 | Plant response rating, Foxtail, Giant (giant foxtail; [19]): 0 | Barnyardgrass plant response rating (barnyardgrass; [4]): 15 | Barnyardgrass plant response rating (barnyardgrass; [16]): 40 | Barnyardgrass plant response rating (barnyardgrass; [6]): 55 | Plant response rating, Barnyardgrass (barnyardgrass; [7]): 65 | Plant response rating (0 = no effect, 100 = complete control), Sunflower [3]: 0 | Plant response rating, Sunflower [3]: 10 | Morningglory plant response rating (morningglory; [20]): 20 | Plant response rating, Morningglory (morningglory; [21]): 35 | Morningglory plant response rating (morningglory; Preemergence, 500 g ai/ha, visual rating, 0 to 100 scale (0 no effect, 100 complete control)): 30 | Morningglory plant response rating (morningglory; [22]): 85 | Plant response rating (0 = no effect, 100 = complete control), Nightshade (eastern black nightshade): 95 | Plant response rating, Nightshade (eastern black nightshade): 100
